Reference: patent US20070270441A1, “Combination” (Altana Pharma AG, priority 2001, published 2007)
Entries after “also recorded” stand apart in the source; their conditions may differ.

Legend:
[1] = system: Collagen-induced arthritis (CIA) in DBA/1 mice; test: Collagen-induced arthritis (CIA) in DBA/1 mice; assay type: in vivo; conditions: for severity of arthritis compared with control mice: single drug, oral daily for 10 consecutive days, ROFLUMILAST 1 mg/kg, PUMAFENTRINE hydrochloride 3 mg/kg, significant on days 35 and 39
Procedure: Collagen-induced arthritis (CIA) in DBA/1 mice: Mice were immunized intradermally with 200 μg/mouse of type II (CII) bovine collagen in Freund's complete adjuvant (FCA) and challenged intraperitoneally 21 days later with 200 μg/mouse of CII in saline. The mice were then administered orally either with 1 mg/kg/day of 3-Cyclopropylmethoxy-4-difluoromethoxy-N-(3,5-dichloropyrid-4-yl)-benzamide [INN: ROFLUMILAST], 3 mg/kg/day of (−)-cis-9-ethoxy-8-methoxy-2-methyl-1,2,3,4,4a,10b-hexahydro-6-(4-diisopropylaminocarbonylphenyl)-benzo[c][1,6]naphthyridine hydrochloride [INN: PUMAFENTRINE hydrochloride], 1 mg/kg/day of METHOTREXATE, or with combinations of METHOTREXATE and the PDE inhibitors for 10 consecutive days, starting 2 days after challenge injection. Control mice received either METHOTREXATE alone (1 mg/kg/day) or the vehicle only.
DBA/1 mice were obtained from Harlan Olac (Bicester, UK) and used 8 weeks old. CIA was induced as described previously (Ruchatz, H., et al., J Immunol. 1998, 160(11):5654-60). Briefly, mice were immunised by intradermal injection of 200 μg of acidified type II collagen (Sigma, Poole UK) emulsified in Freund's Complete adjuvant (FCA, Difco, Detroit, Mich., USA). Collagen (200 μg in PBS) was injected intraperitoneally on day 21 (challenge). Mice were individually ear marked for identification. They were monitored daily and scored every other day for signs of arthritis as follows: 0=normal, 1=erythema, 2=erythema plus swelling, 3=extension/loss of function, and total score=sum of four limbs. Paw thickness was measured with a dial-calliper (Kroeplin, Munich, Germany). […] (3 mg/kg, calculated for PUMAFENTRINE), METHOTREXATE (1 mg/kg), or combinations were administered orally daily by a gavage tube for 10 consecutive days. […] Treatment was withdrawn on day 33 and the mice monitored for a further 8 days. Influence of drug treatments on mean clinical index, arthritic paws and paw thickness were analysed by one-way ANOVA at days 31, 35, and 39. Between group differences in incidence of arthritis were analysed by chi-square test.

[2] = system: rheumatoid arthritis patients unresponsive to METHOTREXATE alone; conditions: combination with METHOTREXATE; cited from earlier work
[3] = system: rheumatoid arthritis patients with active disease despite METHOTREXATE treatment; conditions: in combination with a fixed low-dose (7.5 mg per week) of METHOTREXATE; small number of patients; cited from earlier work

CCOc1cc2c(cc1OC)C(c1ccc(C(=O)N(C(C)C)C(C)C)cc1)=N[C@H]1CCN(C)C[C@@H]21.Cl [PUMAFENTRINE hydrochloride, (−)-cis-9-ethoxy-8-methoxy-2-methyl-1,2,3,4,4a,10b-hexahydro-6-(4-diisopropylaminocarbonylphenyl)-benzo[c][1,6]naphthyridine hydrochloride]
severity of arthritis compared with control mice ([1]; hydrochloride): effective in reducing the severity of arthritis; also recorded: significantly less severe disease

ETANERCEPT
efficacy in rheumatoid arthritis [2]: effective

CN(Cc1cnc2nc(N)nc(N)c2n1)c1ccc(C(=O)N[C@@H](CCC(=O)O)C(=O)O)cc1 [METHOTREXATE, N-(p{[(2,4-diamino-6-pteridinyl)methyl]methylamino}benzoyl)-L-(+)-glutamic acid]
clinical improvement compared with control mice ([1]; METHOTREXATE alone 1 mg/kg/day, oral, 10 days): failed to produce a significant clinical improvement; also recorded: failed to demonstrate any clinical improvement

INFLIXIMAB: chimeric human-murine monoclonal antibody, a specific inhibitor of tumour necrosis factor alpha
degree and duration of efficacy [3]: enhanced degree and duration of efficacy

O=C(Nc1c(Cl)cncc1Cl)c1ccc(OC(F)F)c(OCC2CC2)c1 [ROFLUMILAST, 3-Cyclopropylmethoxy-4-difluoromethoxy-N-(3,5-dichloropyrid-4-yl)-benzamide]
severity of arthritis compared with control mice [1]: effective in reducing the severity of arthritis; also recorded: significantly less severe disease
